{"source": "ChEMBL document CHEMBL3751695", "about": "“Cationic lipid-conjugated hydrocortisone as selective antitumor agent” (Eur J Med Chem, 2016)", "key": {"RAW264.7 [1]": {"test_system": "RAW264.7", "experiment": "Induction of apoptosis in mouse RAW264.7 cells assessed as necrotic cells at 20 uM after 24 hrs by annexin-V-FITC/propidium iodide staining based flow cytometry (reference value: 1.81%)", "format": "cell-based", "conditions": "raw264.7, 24 h"}, "[2]": {"experiment": "Induction of apoptosis in mouse NIH/3T3 cells assessed as early apoptotic cells at 20 uM after 24 hrs by annexin-V-FITC/propidium iodide staining based flow cytometry (reference value: 0.43 %)", "format": "cell-based", "conditions": "nih3t3, 24 h"}, "A549 [3]": {"test_system": "A549", "experiment": "Cytotoxicity against human A549 cells at 5 and 10 uM after 72 hrs cells pretreated with 50 uM of RU486 for 4 hrs by MTT assay", "format": "functional, cell-based"}, "B16-F10 [4]": {"test_system": "B16-F10", "experiment": "Induction of apoptosis in mouse B16F10 cells assessed as increased Bax expression at 20 uM after 36 hrs by western blot analysis", "format": "functional, cell-based"}, "B16-F10 [5]": {"test_system": "B16-F10", "experiment": "Induction of apoptosis in mouse B16F10 cells assessed as increase in cleaved caspase 3 level at 20 uM after 36 hrs by western blot analysis", "format": "functional, cell-based"}, "B16-F10 [6]": {"test_system": "B16-F10", "experiment": "Induction of apoptosis in mouse B16F10 cells assessed as increase in cytochrome C level at 10 uM after 36 hrs by western blot analysis", "format": "functional, cell-based"}, "[7]": {"experiment": "Cell cycle arrest in mouse B16F10 cells assessed as accumulation at G1 phase at 20 uM after 24 hrs by propidium iodide staining based flow cytometry (reference value: 38.8 %)", "format": "functional", "conditions": "B16-F10"}, "[8]": {"experiment": "Cell cycle arrest in mouse B16F10 cells assessed as accumulation at S phase at 20 uM after 24 hrs by propidium iodide staining based flow cytometry (reference value: 5.4 %)", "format": "functional", "conditions": "B16-F10"}, "[9]": {"experiment": "Cell cycle arrest in mouse B16F10 cells assessed as accumulation at G2/M phase at 20 uM after 24 hrs by propidium iodide staining based flow cytometry (reference value: 15.2 %)", "format": "functional", "conditions": "B16-F10"}, "[10]": {"experiment": "Cell cycle arrest in mouse B16F10 cells assessed as increase in cyclin B1 level at 20 uM by flow cytometric analysis", "format": "functional, cell-based", "conditions": "B16-F10"}, "B16-F10 [11]": {"test_system": "B16-F10", "experiment": "Antitumor activity in mouse B16F10 cells xenografted in C57BL/J mouse assessed as induction of apoptosis in tumor vasculature at 10 mg/kg, ip by TUNEL assay", "format": "functional, organism-based"}, "B16-F10 [12]": {"test_system": "B16-F10", "experiment": "Antitumor activity in mouse B16F10 cells xenografted in C57BL/J mouse assessed as increase of apoptotic protein cytochrome C level in tumor lysates at 10 mg/kg, ip by western blot analysis", "format": "functional, organism-based", "conditions": "Neoplasm, Lysate"}, "Gallus gallus [13]": {"species_on_record": "Gallus gallus", "experiment": "Antiangiogenic activity in chicken embryo assessed as inhibition of neovascularization at 40 uM after 4 hrs by microscopic analysis", "format": "functional, tissue-based"}, "Gallus gallus [14]": {"species_on_record": "Gallus gallus", "experiment": "Antiangiogenic activity in chicken embryo assessed as complete degradation of existing blood vessels at 80 uM after 4 hrs by microscopic analysis", "format": "functional, tissue-based", "conditions": "Blood vessel"}, "B16-F10 [15]": {"test_system": "B16-F10", "experiment": "Inhibition of cell migration in mouse B16F10 cells at 20 uM after 36 hrs by wound healing assay", "format": "functional, cell-based"}, "B16-F10 [16]": {"test_system": "B16-F10", "experiment": "Effect on Bcl-2 expression in mouse B16F10 cells at 10 and 20 uM after 36 hrs by western blot analysis", "format": "functional, cell-based"}, "B16-F10 [17]": {"test_system": "B16-F10", "experiment": "Induction of apoptosis in mouse B16F10 cells assessed as increase in ratio of Bax/Bcl2 level at 20 uM after 36 hrs by western blot analysis (reference value: 0.2)", "format": "functional"}, "B16-F10 [18]": {"test_system": "B16-F10", "experiment": "Induction of apoptosis in mouse B16F10 cells assessed as increase in cytochrome C level at 20 uM after 36 hrs by western blot analysis", "format": "functional, cell-based"}, "B16-F10 [19]": {"test_system": "B16-F10", "experiment": "Antitumor activity in mouse B16F10 cells xenografted in C57BL/J mouse assessed as increase of apoptotic protein cleaved caspase 9 level in tumor lysates at 10 mg/kg, ip by western blot analysis", "format": "functional, organism-based", "conditions": "Neoplasm, Lysate"}, "B16-F10 [20]": {"test_system": "B16-F10", "experiment": "Antitumor activity in mouse B16F10 cells xenografted in C57BL/J mouse assessed as increase of apoptotic protein p53 level in tumor lysates at 10 mg/kg, ip by western blot analysis", "format": "functional, organism-based", "conditions": "Neoplasm, Lysate"}, "[21]": {"experiment": "Antitumor activity in mouse B16F10 cells xenografted in C57BL/J mouse assessed as increase in ratio of Bax/Bcl2 in tumor lysates at 10 mg/kg, ip by western blot analysis (reference value: 0.4)", "format": "functional, Neoplasm, B16-F10"}, "A549 [22]": {"test_system": "A549", "experiment": "Cytotoxicity against human A549 cells after 72 hrs by MTT assay", "format": "functional, cell-based", "conditions": "A549, 72 h"}, "MCF7": {"test_system": "MCF7", "experiment": "Cytotoxicity against human MCF7 cells after 72 hrs by MTT assay", "format": "functional, cell-based", "conditions": "MCF7, 72 h"}, "HeLa": {"test_system": "HeLa", "experiment": "Cytotoxicity against human HeLa cells after 72 hrs by MTT assay", "format": "functional, cell-based"}, "RAW264.7 [23]": {"test_system": "RAW264.7", "experiment": "Cytotoxicity against mouse RAW264.7 cells after 72 hrs by MTT assay", "format": "cell-based", "conditions": "RAW264.7, 72 h"}, "[24]": {"experiment": "Cytotoxicity against mouse NIH/3T3 cells after 72 hrs by MTT assay", "format": "cell-based", "conditions": "NIH3T3, 72 h"}, "[25]": {"experiment": "Cytotoxicity against mouse B16F10 cells at 10 and 20 uM after 72 hrs by MTT assay", "format": "functional, B16-F10"}, "A549 [26]": {"test_system": "A549", "experiment": "Induction of apoptosis in human A549 cells assessed as early apoptotic cells at 20 uM after 24 hrs by annexin-V-FITC/propidium iodide staining based flow cytometry (reference value: 1.41 %)", "format": "functional"}, "A549 [27]": {"test_system": "A549", "experiment": "Induction of apoptosis in human A549 cells assessed as late apoptotic cells at 20 uM after 24 hrs by annexin-V-FITC/propidium iodide staining based flow cytometry (reference value: 7.40 %)", "format": "functional"}, "A549 [28]": {"test_system": "A549", "experiment": "Induction of apoptosis in human A549 cells assessed as necrotic cells at 20 uM after 24 hrs by annexin-V-FITC/propidium iodide staining based flow cytometry (reference value: 3.23 %)", "format": "functional"}, "B16-F10 [29]": {"test_system": "B16-F10", "experiment": "Induction of apoptosis in mouse B16F10 cells assessed as early apoptotic cells at 20 uM after 24 hrs by annexin-V-FITC/propidium iodide staining based flow cytometry (reference value: 0.46 %)", "format": "functional"}, "B16-F10 [30]": {"test_system": "B16-F10", "experiment": "Induction of apoptosis in mouse B16F10 cells assessed as late apoptotic cells at 20 uM after 24 hrs by annexin-V-FITC/propidium iodide staining based flow cytometry (reference value: 4.47 %)", "format": "functional"}, "B16-F10 [31]": {"test_system": "B16-F10", "experiment": "Induction of apoptosis in mouse B16F10 cells assessed as necrotic cells at 20 uM after 24 hrs by annexin-V-FITC/propidium iodide staining based flow cytometry (reference value: 1.41 %)", "format": "functional"}, "MDA-MB-231 [32]": {"test_system": "MDA-MB-231", "experiment": "Induction of apoptosis in human MDA-MB-231 cells assessed as viable cells at 20 uM after 24 hrs by annexin-V-FITC/propidium iodide staining based flow cytometry (reference value: 90.77 %)", "format": "functional", "conditions": "MDA-MB-231, 24 h, read-out: Activity"}, "MDA-MB-231 [33]": {"test_system": "MDA-MB-231", "experiment": "Induction of apoptosis in human MDA-MB-231 cells assessed as late apoptotic cells at 20 uM after 24 hrs by annexin-V-FITC/propidium iodide staining based flow cytometry (reference value: 3.25 %)", "format": "functional"}, "[34]": {"experiment": "Induction of apoptosis in mouse RAW264.7 cells assessed as viable cells at 20 uM after 24 hrs by annexin-V-FITC/propidium iodide staining based flow cytometry (reference value: 89.11 %)", "format": "cell-based", "conditions": "read-out: Activity"}, "RAW264.7 [35]": {"test_system": "RAW264.7", "experiment": "Induction of apoptosis in mouse RAW264.7 cells assessed as early apoptotic cells at 20 uM after 24 hrs by annexin-V-FITC/propidium iodide staining based flow cytometry (reference value: 3.44 %)", "format": "cell-based", "conditions": "raw264.7, 24 h"}}, "note": "The source made the active and inactive calls. The calls are words filed in the database; no cut-off is given here."}
{"smiles": "CCCCCCCCCCCCCCCC[N+](C)(CCCCCCCCCCCCCCCC)CCNC(=O)[C@@]1(O)CC[C@H]2[C@@H]3CCC4=CC(=O)CC[C@]4(C)[C@H]3[C@@H](O)C[C@@]21C.[Cl-]", "values": [{"measurement": "Activity", "setting": "RAW264.7 [1]", "value": 1.36, "unit": "%"}, {"measurement": "Activity", "setting": "[2]", "value": 2.08, "unit": "%"}, {"measurement": "Activity", "setting": "A549 [3]", "value": "Active"}, {"measurement": "Activity", "setting": "B16-F10 [4]", "value": "Active"}, {"measurement": "Activity", "setting": "B16-F10 [5]", "value": "Active"}, {"measurement": "Activity", "setting": "B16-F10 [6]", "value": "Active"}, {"measurement": "Activity", "setting": "[7]", "value": 33.8, "unit": "%"}, {"measurement": "Activity", "setting": "[8]", "value": 9.6, "unit": "%"}, {"measurement": "Activity", "setting": "[9]", "value": 41.4, "unit": "%"}, {"measurement": "Activity", "setting": "[10]", "value": "Active"}, {"measurement": "Activity", "setting": "B16-F10 [11]", "value": "Active"}, {"measurement": "Activity", "setting": "B16-F10 [12]", "value": "Active"}, {"measurement": "inhibition", "setting": "Gallus gallus [13]", "value": "Active"}, {"measurement": "Activity", "setting": "Gallus gallus [14]", "value": "Active"}, {"measurement": "inhibition", "setting": "B16-F10 [15]", "value": "Active"}, {"measurement": "Activity", "setting": "B16-F10 [16]", "value": "inactive"}, {"measurement": "Ratio", "setting": "B16-F10 [17]", "value": 0.6}, {"measurement": "Activity", "setting": "B16-F10 [18]", "value": "Active"}, {"measurement": "Activity", "setting": "B16-F10 [19]", "value": "Active"}, {"measurement": "Activity", "setting": "B16-F10 [20]", "value": "Active"}, {"measurement": "Ratio", "setting": "[21]", "value": 2.1}, {"measurement": "IC50", "setting": "A549 [22]", "value": 2.5, "unit": "µM"}, {"measurement": "IC50", "setting": "MCF7", "value": 3.7, "unit": "µM"}, {"measurement": "IC50", "setting": "HeLa", "value": 5.2, "unit": "µM"}, {"measurement": "IC50", "setting": "RAW264.7 [23]", "value": 18.4, "unit": "µM"}, {"measurement": "IC50", "setting": "[24]", "value": 20, "unit": "µM"}, {"measurement": "Activity", "setting": "[25]", "value": ">90", "unit": "%"}, {"measurement": "Activity", "setting": "A549 [26]", "value": 7.53, "unit": "%"}, {"measurement": "Activity", "setting": "A549 [27]", "value": 66.05, "unit": "%"}, {"measurement": "Activity", "setting": "A549 [28]", "value": 1.36, "unit": "%"}, {"measurement": "Activity", "setting": "B16-F10 [29]", "value": 1.67, "unit": "%"}, {"measurement": "Activity", "setting": "B16-F10 [30]", "value": 32.41, "unit": "%"}, {"measurement": "Activity", "setting": "B16-F10 [31]", "value": 8.52, "unit": "%"}, {"measurement": "viability at 20 µM", "setting": "MDA-MB-231 [32]", "value": 50.7, "unit": "%"}, {"measurement": "Activity", "setting": "MDA-MB-231 [33]", "value": 40.23, "unit": "%"}, {"measurement": "viability at 24 h, 20 µM", "setting": "[34]", "value": 94.2, "unit": "%"}, {"measurement": "Activity", "setting": "RAW264.7 [35]", "value": 1.63, "unit": "%"}]}
